# Results from publication PMC10149936, “Cofilin activation in pancreatic acinar cells plays a pivotal convergent role for mediating CCK-stimulated enzyme secretion and growth” (Frontiers in Physiology, 2023).
# No end group written: not given here.
# Assays:
# [1] = system: cofilin (pS3) in rat pancreatic acini; assay: cofilin activation (phospho-pS3 cofilin Western blot) in isolated rat pancreatic acini; format: cell-based; settings: for effect on basal phosphorylation of cofilin: SE 50 µM 3 h or D3 25 µM 1 h; for effect on basal phosphorylation of cofilin / decrease of basal phosphorylation levels of cofilin / effect on basal phosphorylation level of cofilin: no stimulant; for inhibition of dephosphorylation of cofilin stimulated by CCK-8 or TPA: PF-3758309 0.1 nM or LCH-7749944 30 µM; for inhibition of dephosphorylation of cofilin stimulated by CCK-8 or TPA / effect on basal phosphorylation level of cofilin / reversal of cofilin dephosphorylation stimulated by CCK-8 and TPA: 3 h; for inhibition of dephosphorylation of cofilin stimulated by CCK-8 or TPA / reversal of cofilin dephosphorylation by CCK-8: CCK-8 0.3 and 100 nM 3 min; for inhibition of dephosphorylation of cofilin stimulated by CCK-8 or TPA / reversal of cofilin dephosphorylation stimulated by CCK-8 and TPA: TPA 1 µM 5 min; for decrease of basal phosphorylation levels of cofilin / inhibition of CCK-8-stimulated dephosphorylation of cofilin: LIMK inhibitor 10 µM 3 h; for inhibition of CCK-8-stimulated dephosphorylation of cofilin: CCK-8 0.3 or 100 nM 3 min; for reversal of cofilin dephosphorylation by CCK-8: Wortmannin 1 µM, LY294002 100 µM, SB202190 10 µM, U0126 10 µM, Y-27632 10 µM 1 h, SP600125 20 µM 3 h; for effect on basal phosphorylation level of cofilin / reversal of cofilin dephosphorylation stimulated by CCK-8 and TPA: GFX 5 µM, kbNB 0.1 µM or PP2 10 µM; for reversal of cofilin dephosphorylation stimulated by CCK-8 and TPA: CCK-8 100 nM 3 min; for effect on cofilin phosphorylation (pS3): 1 min, CCK-8 100 nM, carbachol 1 μM, bombesin 1 nM, secretin 1 nM or VIP 1 nM, n at least 3
# Experimental: (§1) Pancreatic acini preparations were obtained by collagenase digestion as previously described ([Bissonnette et al., 1984]; [Sato et al., 1989]; [Ramos-Alvarez and Jensen, 2018]). After collagenase digestion, dispersed acini were preincubated with different inhibitors in standard incubation solution ([Ramos-Alvarez and Jensen, 2018]; [Ramos-Ãlvarez et al., 2020]) for 3 h at 37°C under conditions specific for PKD/PKC, Src, PI3K, MAPKs, SSH1, LIMK, cofilin, other phosphatases and PAK4 inhibitors, as described previously ([Ramos-Alvarez and Jensen, 2018]; [Ramos-Ãlvarez et al., 2020]). Isolated acini and CCK1-R/Panc-1 cells (M&M 2.2.1) were also preincubated with two SSH1 inhibitors, D3 (25 μM, 1 h) ([Li et al., 2015]) or SE (50 μM, 3 h for acini; 24 h for CCK1-R/Panc-1 cells) ([Lee et al., 2017]). After preincubation, 1 mL aliquots of dispersed acini were incubated at 37°C for 3–15 min with CCK-8 (0.3 nM or 100 nM), for 5–15 min with TPA (1 µM) or without stimulants, used as control. Cells were lysed in lysis buffer (50 mM Tris/HCl pH 7.5, 150 mM NaCl, 1% Triton X-100, 1% deoxycholate, 0.1% sodium azide, 1 mM EGTA, 0.4 mM EDTA, 0.2 mM sodium orthovanadate, 1 mM PMSF, and one protease inhibitor tablet per 10 mL). After sonication, lysates were centrifuged at 10,000×g for 15 min at 4°C and protein concentration was measured using the Bio-Rad protein assay reagent. Finally, cells were processed as below for Western blotting.
# (§2) Both concentrations of CCK-8 were used because CCK-8 is reported to have different responses with physiological and supraphysiological concentrations contributing to physiological and pathophysiological processes such as pancreatitis ([Dufresne et al., 2006]).
# (§3) Western blotting and immunoprecipitation were performed as described previously ([Ramos-Alvarez and Jensen, 2018]). Whole cell lysates were subjected to SDS-PAGE using 4%–20% Tris–Glycine gels. […] Finally, membranes were then washed again twice in blocking buffer for 4 min, twice in washing buffer for 4 min, incubated for 4 min with chemiluminescence detection reagents. The intensity of the protein bands was measured using GeneTools software from Syngene, which were assessed in the linear detection range.
# All experiments were performed at least 3 times. Data are presented as mean ± SEM and were analyzed with the non-parametric Kruskal–Wallis analysis (data was not normally distributed) and the Dunn’s multiple comparison test using the GraphPad Prism 8.0 software. P values < 0.05 were considered significant.
# (A) Isolated pancreatic acini were incubated in the absence or presence of CCK-8 (100 nM), carbachol (1 μM), bombesin (1 nM), secretin (1 nM) or VIP (1 nM) for 1 min and then lysed. (B) Isolated pancreatic acini were incubated in the absence or presence of CCK-8 and CCK-JMV (at the indicate concentrations) for 3 min and then lysed. Western blots were analyzed using anti-pS3 cofilin, which mediates the activation state of cofilin. Bands were visualized using chemiluminescence and quantified by densitometry.
# [2] = system: LIMK (pT508) in pancreatic acini; assay: LIMK phosphorylation (pT508 LIMK Western blot) in isolated rat pancreatic acini; format: cell-based; settings: for effect on basal phosphorylation of LIMK: SE 50 µM 3 h or D3 25 µM 1 h; for effect on basal phosphorylation of LIMK / decrease of basal levels of LIMK phosphorylation: no stimulant; for decrease of basal levels of LIMK phosphorylation: 10 µM, 3 h preincubation, n at least 4
# Experimental: as §1, §2, §3
# Isolated pancreatic acini were incubated with either no addition (control), CCK-8 (0.3 and 100 nM) or TPA (1 µM) for the indicated periods of time and then lysed. Western blots were analyzed using anti-pT508 LIMK, anti-pS3 cofilin and anti-pS978 SSH1, which […] the activation states of LIMK, cofilin and SSH1. Bands were visualized using chemiluminescence and quantified by densitometry.
# [3] = system: cofilin (pS3) in CCK1-R/Panc-1 cells; assay: cofilin activation (pS3 cofilin Western blot) in CCK1-R/Panc-1 cells; format: cell-based, human; settings: CCK-8 0.3 or 100 nM; D3 25 µM 1 h or SE 50 µM 24 h
# Experimental: CCK1 receptor transfected Panc-1 (CCK1-R/Panc-1) cells ([Berna et al., 2009]) and AR42J cells, were cultured in DMEM supplemented with 10% FBS and 1% penicillin/streptomycin and in RPMI supplemented with 10% FBS and 1% penicillin/streptomycin, respectively; and split 1:10 weekly with trypsin/EDTA, after washing in PBS. Finally, cells were seeded in 6-well plate and serum starved overnight, until they were 80% confluent. Cells were incubated at 37°C in 5% CO2/95% air. AR42J cells were treated with 100 nM dexamethasone for 72°h, which stimulates their differentiation into exocrine cells ([Logsdon, 1986]).
# Pancreatic acini preparations were obtained by collagenase digestion as previously described ([Bissonnette et al., 1984]; [Sato et al., 1989]; [Ramos-Alvarez and Jensen, 2018]). […] Isolated acini and CCK1-R/Panc-1 cells (M&M 2.2.1) were also preincubated with two SSH1 inhibitors, D3 (25 μM, 1 h) ([Li et al., 2015]) or SE (50 μM, 3 h for acini; 24 h for CCK1-R/Panc-1 cells) ([Lee et al., 2017]). […] After sonication, lysates were centrifuged at 10,000×g for 15 min at 4°C and protein concentration was measured using the Bio-Rad protein assay reagent. […]
# Western blotting and immunoprecipitation were performed as described previously ([Ramos-Alvarez and Jensen, 2018]). […] The intensity of the protein bands was measured using GeneTools software from Syngene, which were assessed in the linear detection range. […]
# FIGURE 3 Effect of two SSH1 inhibitors, D3 and SE (A–C), or SSH1 siRNA (D), on the ability of CCK-8 (0.3 and 100 nM) to activate LIMK and cofilin in pancreatic acini (A/B) and activate cofilin in CCK1-R/Panc-1 cells (C/D). […] Western blots were analyzed using anti-pS3 cofilin and anti-pT508 […], and the knockdown effect of SSH1 was confirmed by Western blots using SSH1 (C-term) antibody. Bands were visualized using chemiluminescence and quantified by densitometry. […] Results are expressed as % of basal stimulation of the control group. *, p < 0.05 compared to the control group; ∞, p < 0.05 compared to stimulants without inhibitors. […]
# [4] = Rattus norvegicus, CCK-8 0.3 or 100 nM, 5 min, SE 50 µM 3 h or D3 25 µM 1 h preincubation, n at least 4, read-out: inhibition of CCK-8-caused cofilin dephosphorylation
# [5] = Rattus norvegicus, CCK-8 0.3 or 100 nM, 5 min, SE 50 µM 3 h or D3 25 µM 1 h preincubation, read-out: inhibition of CCK-8's dephosphorylation of LIMK
# [6] = inhibitor 10 µM 3 h, CCK-8 0.3 or 100 nM 3 min
compound,measurement,setting,value
"Cc1ccccc1N1C(=O)/C(=C/c2ccc(OCc3ccc(C(=O)O)cc3)cc2)SC1=S [D3, (Z)-4-((4-((4-oxo-2-thioxo-3-(o-tolyl)thiazolidin-5-ylidene)methyl)phenoxy)methyl)benzoic acid]",inhibition at 25 µM,[1]; [4],32 to 49%
same,effect on basal phosphorylation of cofilin,[1],Neither D3 nor SE affected the basal phosphorylation of LIMK or cofilin
same,inhibition at 25 µM,[2]; [5],20%
same,effect on basal phosphorylation of LIMK,[2],Neither D3 nor SE affected the basal phosphorylation of LIMK or cofilin
same,inhibition of CCK-8-induced dephosphorylation of cofilin,[3],completely inhibited
"COc1cccc(Nc2nc(NCC3CCCO3)c3ccccc3n2)c1 (centres unmarked) [LCH-7749944, N2-(3-methoxyphenyl)-N4-[(oxolan-2-yl)methyl]quinazoline-2,4-diamine]",inhibition of dephosphorylation of cofilin stimulated by CCK-8 or TPA,[1],completely inhibited
CC(C)C(=O)Nc1ncc(-c2cc(C(F)F)nn2-c2c(Cl)cccc2Cl)s1 [LIMKi3],decrease of basal phosphorylation levels of cofilin,[1],39%
same,inhibition of CCK-8-stimulated dephosphorylation of cofilin,[1],did not inhibit
same,decrease of basal levels of LIMK phosphorylation,[2],33%
same,inhibition of LIMK dephosphorylation caused by CCK-8,[2]; [6],completely inhibited
O=c1cc(N2CCOCC2)oc2c(-c3ccccc3)cccc12 [LY294002],reversal of cofilin dephosphorylation by CCK-8,[1],not PI3K or p38
Cc1nc(Nc2[nH]nc3c2CN(C(=O)N[C@H](CN(C)C)c2ccccc2)C3(C)C)c2sccc2n1 [PF-3758309],inhibition of dephosphorylation of cofilin stimulated by CCK-8 or TPA,[1],completely inhibited
CC(C)(C)n1nc(-c2ccc(Cl)cc2)c2c(N)ncnc21 [PP2],effect on basal phosphorylation level of cofilin,[1],None of these inhibitors altered the basal phosphorylation level of cofilin
same,reversal of cofilin dephosphorylation stimulated by CCK-8 and TPA,[1],completely reversed
"O=C(O)c1cc(O)c2c(c1)[C@H]([C@H]1c3cc(C(=O)O)cc(O)c3C(=O)c3c(O[C@@H]4O[C@H](CO)[C@@H](O)[C@H](O)[C@H]4O)cccc31)c1cccc(O[C@@H]3O[C@H](CO)[C@@H](O)[C@H](O)[C@H]3O)c1C2=O [SE, Sennoside A]",inhibition at 50 µM,[1]; [4],30 to 33%
same,effect on basal phosphorylation of cofilin,[1],Neither D3 nor SE affected the basal phosphorylation of LIMK or cofilin
same,inhibition at 50 µM,[2]; [5],20%
same,effect on basal phosphorylation of LIMK,[2],Neither D3 nor SE affected the basal phosphorylation of LIMK or cofilin
same,inhibition of CCK-8-induced dephosphorylation of cofilin,[3],completely inhibited
Cc1c[nH]c2ncnc(-c3ccc(NC(=O)N(CCO)c4ccccc4)cc3)c12 [SR7826],decrease of basal phosphorylation levels of cofilin,[1],67%
same,inhibition of CCK-8-stimulated dephosphorylation of cofilin,[1],did not inhibit
same,decrease of basal levels of LIMK phosphorylation,[2],33%
same,increase in LIMK phosphorylation with CCK-8 stimulation,[2]; [6],80%
same,inhibition of LIMK dephosphorylation caused by CCK-8,[2]; [6],completely inhibited
COC[C@H]1OC(=O)c2coc3c2[C@@]1(C)C1=C(C3=O)[C@@H]2CCC(=O)[C@@]2(C)C[C@H]1OC(C)=O [Wortmannin],reversal of cofilin dephosphorylation by CCK-8,[1],not PI3K or p38
C[C@@H](N)[C@H]1CC[C@H](C(=O)Nc2ccncc2)CC1 [Y-27632],reversal of cofilin dephosphorylation by CCK-8,[1],completely reversed
C[N+](C)(C)CCOC(N)=O [carbachol],effect on cofilin phosphorylation (pS3),[1],rapidly decreased cofilin phosphorylation
KbNB142-70,effect on basal phosphorylation level of cofilin,[1],None of these inhibitors altered the basal phosphorylation level of cofilin
same,reversal of cofilin dephosphorylation stimulated by CCK-8 and TPA,[1],completely reversed
"VIP: pancreatic acinar secretagogue (HSDAVFTDNYTRLRKQMAVKKYLNSILN; ends and bridges not checked; UniProt P01282 125-152, looked up)",effect on cofilin phosphorylation (pS3),[1],rapidly decreased cofilin phosphorylation
bombesin,effect on cofilin phosphorylation (pS3),[1],rapidly decreased cofilin phosphorylation
secretin,effect on cofilin phosphorylation (pS3),[1],rapidly decreased cofilin phosphorylation
